The source of these data is patent publication US7115740B2, “Pyrimido compounds having antiproliferative activity” (Hoffmann-la Roche Inc., priority 2003, dated 2006).

Take `COc1ccc(N2Cc3cnc(Nc4ccccc4)nc3N([C@@H](C)CO)C2=O)cc1` [Example 15d, (S)-(+)-1-(2-hydroxy-1-methyl-ethyl)-3-(4-methoxy-phenyl)-7-phenylamino-3,4-dihydro-1H-pyrimido[4,5-d]pyrimidin-2-one]: the melting point is 140 to 147 °C.
For `COc1ccc(N2Cc3cnc(Nc4ccc(F)cc4)nc3N([C@@H](C)CO)C2=O)c(F)c1` [Example 21b, (S)-(+)-3-(2-fluoro-4-methoxy-phenyl)-7-(4-fluoro-phenylamino)-1-(2-hydroxy-1-methyl-ethyl)-3,4-dihydro-1H-pyrimido[4,5-d]pyrimidin-2-one] the value was 173 to 177 °C; for `COc1ccc(N2Cc3cnc(Nc4ccccc4)nc3N([C@H](C)CO)C2=O)cc1` [Example 23d, (R)-(−)-1-(2-hydroxy-1-methyl-ethyl)-3-(4-methoxy-phenyl)-7-phenylamino-3,4-dihydro-1H-pyrimido[4,5-d]pyrimidin-2-one], 156 to 163 °C; for `COc1ccc(N2Cc3cnc(Nc4ccccc4)nc3N(C[C@@H](C)O)C2=O)cc1` [Example 28d, (R)-(−)-1-(2-hydroxy-propyl)-3-(4-methoxy-phenyl)-7-phenylamino-3,4-dihydro-1H-pyrimido[4,5-d]pyrimidin-2-one], 189 to 193 °C.
Consider `COc1ccc(N2Cc3cnc(Nc4ccccc4)nc3N(C[C@H](C)O)C2=O)cc1` [Example 31d, (S)-(+)-1-(2-hydroxy-propyl)-3-(4-methoxy-phenyl)-7-phenylamino-3,4-dihydro-1H-pyrimido[4,5-d]pyrimidin-2-one], for which the melting point was 188 to 193 °C.
